Patent US20120132797A1, “MEANS AND METHODS FOR DIAGNOSING THYROID DISORDERS” (BASF SE, priority 2009, published 2012)

System: Wistar (Crl:WI(Han)) rats
Experiment: Mass spectrometry-based plasma metabolite profiling of rats treated with known inducers of thyroid function impairment
Format: in vivo, rat
Settings: male rats, ratio of group medians vs controls
From the text: At the beginning of the study the animals were 10-11 weeks old. Each dose group in the studies consisted of five rats per sex, and was compared with controls (10 rats per sex). […] The dose levels were chosen to show the typical overt (high dose) and slight (low dose) toxicological symptoms of the substances as described in the literature or in BASF internal study reports.
Blood samples were withdrawn from the retro-orbital sinus in all rats under isoflurane anesthesia on study days 7, 14 and 28 after a fasting period of 16-20 hours.
For mass spectrometry-based metabolite profiling analysis, plasma samples were extracted by a proprietary method which delivers a polar and a non-polar fraction. For GC-MS analysis, the non-polar fraction was treated with methanol under acidic conditions to yield the fatty acid methyl esters. Both fractions were further derivatised with Omethyl-hydroxyamine hydrochloride and pyridine to convert oxo groups to Omethyloximes and subsequently with a silylating agent before analysis.
In LC-MS/MS analysis, both fractions were reconstituted in appropriate solvent mixtures. HPLC was performed by gradient elution on reversed phase separation columns. For mass spectrometric detection metanomics proprietary technology was applied, which allows target and high sensitivity MRM (Multiple Reaction Monitoring) profiling in parallel to a full screen analysis. […] Moreover, several hundred additional analytes giving a fingerprint of the sample were included in the methods.
Following comprehensive analytical validation steps, the data for each analyte were normalized against data from pool samples. These samples were run in parallel through the whole process to account for process variability.
The sex- and day-stratified heteroscedastic t-test (“Welch test”) was applied to compare treated groups with respective controls. p-Values and ratios of corresponding group medians were collected as metabolic profiles and fed into a database.

SMILES: Cn1cc[nH]c1=S [Methimazole]
- Sphingomyelin (d18:1, C16:0) (mh7 (study day 7), Table 4): 2.24
- Stearic acid (C18:0) (mh7 (study day 7), Table 4): 1.34
- Threonic acid (mh7 (study day 7), Table 4): 0.72
- dihomo-gamma-Linolenic acis (C20:cis[8,11,14]3) (mh7 (study day 7), Table 4): 2.38
- erythro-Sphingosine (mh7 (study day 7), Table 4): 2.92
- myo-Inositol-2-phosphate (mh7 (study day 7), Table 4): 2.55
- threo-Sphingosine (mh7 (study day 7), Table 4): 3.02
- 3-O-Methylsphingosine (mh14 (study day 14), Table 2): 3.85
- 5-O-Methylsphingosine (mh14 (study day 14), Table 2): 4.15
- 14-Methyl-Pentadecanoic acid (mh14 (study day 14), Table 2): 0.85
- 17-Methyloctadecanoic acid (mh14 (study day 14), Table 2): 0.92
- Arginine (mh14 (study day 14), Table 2): 1.09
- Cholesterol (mh14 (study day 14), Table 2): 2.31
- Citrate (mh14 (study day 14), Table 2): 0.69
- Dihom-gamma-Linolenic acid (C20:cis[8,11,14]3) (mh14 (study day 14), Table 2): 3.22
- Lignoceric acid (C24:0) (mh14 (study day 14), Table 2): 2.82
- Phytosphingosine (mh14 (study day 14), Table 2): 2.92
- Sphingomyelin (d18:1, C16:0) (mh14 (study day 14), Table 2): 2.27
- Tricosanoic acid (C23:0) (mh14 (study day 14), Table 2): 2.69
- alpha-Tocopherol (mh14 (study day 14), Table 2): 2.66
- erythro-Sphingosine (mh14 (study day 14), Table 2): 3.71
- threo-Sphingosine (mh14 (study day 14), Table 2): 3.78
- Glutamate (mh14 (study day 14), Table 2, first listing): 0.57
- Glutamate (mh14 (study day 14), Table 2, second listing): 0.49
- Behenic acid (C22:0) (mh14 (study day 14), Table 4): 3.03
- Cholesterol (mh14 (study day 14), Table 4): 1.93
- Citrate (mh14 (study day 14), Table 4): 0.69
- Cytosine (mh14 (study day 14), Table 4): 0.46
- Galactose, lipid fraction (mh14 (study day 14), Table 4): 1.46
- Glycerol phosphate (mh14 (study day 14), Table 4): 1.67
- Glycine (mh14 (study day 14), Table 4): 1.25
- Lignoceric acid (C24:0) (mh14 (study day 14), Table 4): 2.82
- Mannose (mh14 (study day 14), Table 4): 1.04
- Nervonic acid C24:(cis[15]1) (mh14 (study day 14), Table 4): 3.00
- Phospha-tidylcholine (C18:0, 18:2) (mh14 (study day 14), Table 4): 1.28
- Sphingomyelin (d18:1, C16:0) (mh14 (study day 14), Table 4): 2.27
- Stearic acid (C18:0) (mh14 (study day 14), Table 4): 1.40
- Threonic acid (mh14 (study day 14), Table 4): 0.69
- dihomo-gamma-Linolenic acis (C20:cis[8,11,14]3) (mh14 (study day 14), Table 4): 3.22
- erythro-Sphingosine (mh14 (study day 14), Table 4): 3.71
- myo-Inositol-2-phosphate (mh14 (study day 14), Table 4): 2.35
- threo-Sphingosine (mh14 (study day 14), Table 4): 3.78
- 3-O-Methylsphingosine (mh28 (study day 28), Table 2): 4.55
- 5-O-Methylsphingosine (mh28 (study day 28), Table 2): 3.40
- 14-Methyl-Pentadecanoic acid (mh28 (study day 28), Table 2): 0.54
- 17-Methyloctadecanoic acid (mh28 (study day 28), Table 2): 0.45
- Arginine (mh28 (study day 28), Table 2): 1.14
- Cholesterol (mh28 (study day 28), Table 2): 2.03
- Citrate (mh28 (study day 28), Table 2): 0.73
- Dihom-gamma-Linolenic acid (C20:cis[8,11,14]3) (mh28 (study day 28), Table 2): 2.02
- Lignoceric acid (C24:0) (mh28 (study day 28), Table 2): 2.16
- Phytosphingosine (mh28 (study day 28), Table 2): 3.04
- Sphingomyelin (d18:1, C16:0) (mh28 (study day 28), Table 2): 1.92
- Tricosanoic acid (C23:0) (mh28 (study day 28), Table 2): 2.50
- alpha-Tocopherol (mh28 (study day 28), Table 2): 2.18
- erythro-Sphingosine (mh28 (study day 28), Table 2): 3.47
- threo-Sphingosine (mh28 (study day 28), Table 2): 4.30
- Glutamate (mh28 (study day 28), Table 2, first listing): 0.46
- Glutamate (mh28 (study day 28), Table 2, second listing): 0.40
- Behenic acid (C22:0) (mh28 (study day 28), Table 4): 3.01
- Cholesterol (mh28 (study day 28), Table 4): 1.56
- Citrate (mh28 (study day 28), Table 4): 0.73
- Cytosine (mh28 (study day 28), Table 4): 0.39
- Galactose, lipid fraction (mh28 (study day 28), Table 4): 1.53
- Glycerol phosphate (mh28 (study day 28), Table 4): 1.46
- Glycine (mh28 (study day 28), Table 4): 0.98
- Lignoceric acid (C24:0) (mh28 (study day 28), Table 4): 2.16
- Mannose (mh28 (study day 28), Table 4): 0.87
- Nervonic acid C24:(cis[15]1) (mh28 (study day 28), Table 4): 2.23
- Phospha-tidylcholine (C18:0, 18:2) (mh28 (study day 28), Table 4): 1.35
- Sphingomyelin (d18:1, C16:0) (mh28 (study day 28), Table 4): 1.92
- Stearic acid (C18:0) (mh28 (study day 28), Table 4): 1.16
- Threonic acid (mh28 (study day 28), Table 4): 0.69
- dihomo-gamma-Linolenic acis (C20:cis[8,11,14]3) (mh28 (study day 28), Table 4): 2.02
- erythro-Sphingosine (mh28 (study day 28), Table 4): 3.47
- myo-Inositol-2-phosphate (mh28 (study day 28), Table 4): 1.85
- threo-Sphingosine (mh28 (study day 28), Table 4): 4.30
